# Source: patent publication US12459951B2, “Compounds that interact with RAS superfamily proteins for treatment of cancers, inflammatory diseases, rasopathies, and fibrotic disease” (SHY Therapeutics, LLC, priority 2022, dated 2025)
# Read-outs that look alike come from different tables or passages of the source.
# Assays:
# TNF-alpha = TNF-alpha Quantification Assay (ELISA), LPS-stimulated RAW 264.7; type: cell-based; details: Mus musculus, RAW264.7; at 10 μM; read-out: TNFα: % inh.
# [1] = system: MiaPaca-2 (expressing KRAS G12C mutant); test: Proliferation Assay (Cell Viability Assay); type: cell-based; details: Homo sapiens, MIA PaCa-2
# How it was run: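 MiaPaca-2 cells (KRAS G12C) were grown in DMEM-high glucose with 10% FBS, seeded at 2000–5000 cells/well and cultured overnight. Compounds were added at 10 μM final, or as serial dilutions for IC50, in 0.3% DMSO/10% FBS for 2–4 days at 37 °C, 5% CO2. Viability was measured with CellTiter 96 Aqueous One and % inhibition calculated.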
# KRas G12D mutant = test: Ras GTP Binding Domain Inhibition Assay (Ras Superfamily Assay); details: 20 μM compound; for KRas G12D mutant + SOS: % inh.: with SOS; for KRas G12D mutant: % inh.: without SOS
# How it was run: (§1)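 His-tagged GTPases immobilised on nickel-coated plates, pre-incubated with compound (20 μM single point, or serial dilution for IC50) 3 h at room temperature, with or without 10-30 μg/mL Sos (residues 556-1049) in the final hour. Bound Cy3- or Cy5-GTP (100 nM, 45 min) measured by fluorescence after washing.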
# KRas wild type = test: as above; details: 20 μM compound; for KRas wild type + SOS: % inh.: with SOS; for KRas wild type: % inh.: without SOS
# How it was run: as §1
# [2] = read-out: Proliferation in MiaPaca-2: IC50
Structure (SMILES),"IC50 [1, 2]",KRas G12D mutant + SOS: % inh. (KRas G12D mutant),KRas G12D mutant: % inh. (KRas G12D mutant),KRas wild type + SOS: % inh. (KRas wild type),KRas wild type: % inh. (KRas wild type),"IC50 ([1]; Proliferation assay, MiaPaca-2, read-out: MiaPaca-2 IC50 (nM) Pancreatic)",inhibition at 10 µM (TNF-alpha)
"COc1cc(Nc2nc(-c3nccn3C)nn3cc(-c4ccn(C(C)C)n4)c(C)c23)ccn1 [Compound 87, 6-(1-Isopropyl-1H-pyrazol-3-yl)-N-(2-methoxypyridin-4-yl)-5-methyl-2-(1-methyl-1H-imidazol-2-yl)pyrrolo[2,1-f][1,2,4]triazin-4-amine]",> 1000 nM,A (A = 1-25% inhibition),A (A = 1-25% inhibition),0 (0 = 0% inhibition),0 (0 = 0% inhibition),–,0%
"COc1ncncc1Nc1nc(-c2nccn2C)nn2cc(-c3ccn(C(C)C)n3)c(C)c12 [Compound 88, 6-(1-Isopropyl-1H-pyrazol-3-yl)-N-(4-methoxypyrimidin-5-yl)-5-methyl-2-(1-methyl-1H-imidazol-2-yl)pyrrolo[2,1-f][1,2,4]triazin-4-amine]",> 1000 nM,A (A = 1-25% inhibition),A (A = 1-25% inhibition),0 (0 = 0% inhibition),0 (0 = 0% inhibition),–,1 to 24%
"COc1cccnc1Nc1nc(-c2nccn2C)nn2cc(-c3ccn(C(C)C)n3)c(C)c12 [Compound 89, 6-(1-Isopropyl-1H-pyrazol-3-yl)-N-(3-methoxypyridin-2-yl)-5-methyl-2-(1-methyl-1H-imidazol-2-yl)pyrrolo[2,1-f][1,2,4]triazin-4-amine]",< 150 nM,D (D = 76-100% inhibition),D (D = 76-100% inhibition),D (D = 76-100% inhibition),D (D = 76-100% inhibition),–,25 to 49%
"COCCO[C@H]1C[C@H](Nc2nc(-c3nccn3C)nn3cc(-c4ccn(C(C)C)n4)c(C)c23)C1 [Compound 92, 6-(1-Isopropyl-1H-pyrazol-3-yl)-N-((1r,3r)-3-(2-methoxyethoxy)cyclobutyl)-5-methyl-2-(1-methyl-1H-imidazol-2-yl)pyrrolo[2,1-f][1,2,4]triazin-4-amine]",> 1000 nM,A (A = 1-25% inhibition),A (A = 1-25% inhibition),0 (0 = 0% inhibition),0 (0 = 0% inhibition),–,1 to 24%

# Further lines, with some results ahead:
"IC50 [1, 2]",KRas G12D mutant + SOS: % inh. (KRas G12D mutant),KRas G12D mutant: % inh. (KRas G12D mutant),KRas wild type + SOS: % inh. (KRas wild type),KRas wild type: % inh. (KRas wild type),"IC50 ([1]; Proliferation assay, MiaPaca-2, read-out: MiaPaca-2 IC50 (nM) Pancreatic)",Structure (SMILES),inhibition at 10 µM (TNF-alpha)
150 to 500 nM,C (C = 50-75% inhibition),A (A = 1-25% inhibition),0 (0 = 0% inhibition),B (B = 26-49% inhibition),–,"COc1nccc(Nc2nc(-c3nccn3C)nn3cc(-c4ccn(C(C)C)n4)c(C)c23)n1 [Compound 86, 6-(1-Isopropyl-1H-pyrazol-3-yl)-N-(2-methoxypyrimidin-4-yl)-5-methyl-2-(1-methyl-1H-imidazol-2-yl)pyrrolo[2,1-f][1,2,4]triazin-4-amine]",1 to 24%
> 1000 nM,A (A = 1-25% inhibition),0 (0 = 0% inhibition),0 (0 = 0% inhibition),B (B = 26-49% inhibition),–,"Cc1c(-c2ccn(C(C)C)n2)cn2nc(-c3nccn3C)nc(Nc3ncc(C4CC4)o3)c12 [Compound 90, 5-Cyclopropyl-N-(6-(1-isopropyl-1H-pyrazol-3-yl)-5-methyl-2-(1-methyl-1H-imidazol-2-yl)pyrrolo[2,1-f][1,2,4]triazin-4-yl)oxazol-2-amine]",1 to 24%
< 150 nM,D (D = 76-100% inhibition),D (D = 76-100% inhibition),C (C = 50-75% inhibition),D (D = 76-100% inhibition),10 to 50 nM,"Cc1c(-c2ccn(C(C)C)n2)cn2nc(-c3nccn3C)nc(Nc3cc4n(n3)CCO4)c12 [Compound 91, N-(6-(1-Isopropyl-1H-pyrazol-3-yl)-5-methyl-2-(1-methyl-1H-imidazol-2-yl)pyrrolo[2,1-f][1,2,4]triazin-4-yl)-2,3-dihydropyrazolo[5,1-b]oxazol-6-amine]",1 to 24%
